This is an account of results in publication PMC3864932, “Identification of Crucial Amino Acids in Mouse Aldehyde Oxidase 3 That Determine Substrate Specificity” (PLoS ONE, 2013).

Read-outs that look alike come from different tables or passages of the source.

Data set [1] relates to T1, mAOX3-FeSI-mAOX1.
T1 construct: gene Aox3; mAOX3 with A87-Q214 replaced by T83-Q213 of mAOX1 (FeSI domain); N-terminal His6-tag; E. coli; dimer
The experiment in a line: steady-state kinetics, DCPIP reduction at […] nm. In kind it is biochemical, Mus musculus. Particulars: 100 µM DCPIP as electron acceptor, 50 mM Tris-HCl pH 8.0, 1 mM EDTA, 37 °C; kcat corrected for Mo content.

Data set [2] has as its system T2, mAOX3-FeSII-mAOX1.
T2 construct: gene Aox3; mAOX3 with M1-P80 replaced by M1-P76 of mAOX1 (FeSII domain); N-terminal His6-tag; E. coli; dimer
The experiment in a line: steady-state kinetics, DCPIP reduction at […] nm. In kind it is biochemical, Mus musculus. Particulars: 100 µM DCPIP as electron acceptor, 50 mM Tris-HCl pH 8.0, 1 mM EDTA, 37 °C, kcat corrected for Mo content.

Data set [3] has as its system T3, mAOX3-FeSII-FeSI-mAOX1.
T3 construct: gene Aox3; mAOX3 with M1-Q214 replaced by M1-Q213 of mAOX1 (both FeS domains); N-terminal His6-tag; E. coli; dimer
The experiment in a line: steady-state kinetics, DCPIP reduction at […] nm. The format is biochemical, Mus musculus. Particulars: 100 µM DCPIP as electron acceptor, 50 mM Tris-HCl pH 8.0, 1 mM EDTA, 37 °C; kcat corrected for Mo content.

The subject of data set [4] is T4, mAOX3-FeSII-FeSI-mAOX1.
T4 construct: gene Aox3
Particulars: read-out: mAOX3-FeSII-FeSI-mAOX1; O2 (air-saturated buffer) as electron acceptor, 50 mM Tris-HCl pH 8.0, 1 mM EDTA, 37 °C; kcat corrected for Mo content.

In data set [5] the test system is T5, mAOX3-FeSI-mAOX1.
T5 construct: gene Aox3
Particulars: read-out: mAOX3-FeSI-mAOX1; O2 (air-saturated buffer) as electron acceptor, 50 mM Tris-HCl pH 8.0, 1 mM EDTA, 37 °C; kcat corrected for Mo content.

In data set [6] the test system is T6, mAOX3-FeSII-mAOX1.
T6 construct: gene Aox3
Particulars: read-out: mAOX3-FeSII-mAOX1; O2 (air-saturated buffer) as electron acceptor, 50 mM Tris-HCl pH 8.0, 1 mM EDTA, 37 °C; kcat corrected for Mo content.

Substrate in data set [7]: c1ccc2c(c1)cnc1ccccc12
The data set is described as follows: purified protein. Particulars: O2 (air-saturated buffer) as electron acceptor, 50 mM Tris-HCl pH 8.0, 1 mM EDTA, 37 °C, kcat corrected for Mo content.

Substrate in data set [8]: C[n+]1cccc(C(N)=O)c1
The experiment in a line: purified protein. In kind it is biochemical, Mus musculus. Particulars: 100 µM DCPIP as electron acceptor, 50 mM Tris-HCl pH 8.0, 1 mM EDTA, 37 °C, kcat corrected for Mo content.

Substrate in data set [9]: c1ccc2cnncc2c1
The experiment in a line: purified protein. In kind it is biochemical, Mus musculus. Particulars: 100 µM DCPIP as electron acceptor, 50 mM Tris-HCl pH 8.0, 1 mM EDTA, 37 °C, kcat corrected for Mo content.

As for `O=c1[nH]cnc2[nH]ncc12` [allopurinol], the Km in data set [1] is 1340 ± 43 µM.
As for `c1ccc2cnncc2c1` [phthalazine], the Km in data set [2] (read-out: mAOX3-WT ^4) was 1.4 ± 0.2 µM; in [1], 1.2 ± 0.1 µM; in data set [3], 1 ± 0.1 µM.
As for `c1ccc2c(c1)cnc1ccccc12` [phenanthridine], the Km stood at 28 ± 2 µM in data set [4], 35 ± 2 µM in data set [5] and 30 ± 5 µM in data set [6].
On to `O=Cc1ccccc1` [benzaldehyde], for which the Km came to 1.6 ± 0.1 µM in data set [2] (read-out: mAOX3-FeSII-mAOX1), 3.6 ± 0.3 µM in data set [1] and 2.2 ± 0.1 µM in data set [3].

B1: mAOX3 (mouse aldehyde oxidase 3) (Mus musculus; P1015G) (protein)
chain: MSPSKESDELIFFVNGKKVTERNADPEVNLLFYLRKVIRLTGTKYGCGGGDCGACTVMISRYDPISKRISHFSATACLVPICSLHGAAVTTVEGIGSTKTRIHPVQERIAKGHGTQCGFCTPGMVMSIYTLLRNHPEPSTEQIMETLGGNLCRCTGYRPIVESAKSFCPSSTCCQMNGEGKCCLDEEKNEPERKNSVCTKLYEKKEFQPLDPTQELIFPPELMRMAEESQNTVLTFRGERTTWIAPGTLNDLLELKMKHPSAPLVIGNTYLGLHMKFTDVSYPIIISPARILELFVVTNTKQGLTLGAGLSLTQVKNVLSDVVSRLPKEKTQIYCALLKQLKTLAGQQIRNVASLGGHIISRLPTSDLNPILGIGNCILNVASTEGIQQIPLNDHFLAGVPDAILKPEQVLISVFVPRSSKWEFVSAFRQAPRQQNAFATVNAGMKVVFKEDTNTITDLGILYGGIGATVISADKSCRQLIGRCWDEEMLDDAGKMICEEVSLLMAAPGGMEEYRKTLAISFLFMFYLDVLKQLKTRDPHKYPDISQKLLHILEDFPLTMPYGMQSFQDVDFQQPLQDPIGRPIMHQSGIKHATGEAVFCDDMSVLPGELFLAVVTSSKSHAKIISLDASEALASLGVVDVVTARDVPGDNGREEESLYAQDEVICVGQIVCAVAADSYAHAQQAAKKVKIVYQDIEPMIVTVQDALQYESFIGPERKLEQGNVEEAFQCADQILEGEVHLGGQEHFYMETQSVRVVPKGEDKEMDIYVSSQDAAFTQEMVARTLGIPKNRINCHVKRVGGAFGGKASKPGLLASVAAVAAQKTGRPIRFILERRDDMLITGGRHPLLGKYKIGFMNNGKIKAADIQLYINGGCTPDDSELVIEYALLKLENAYKIPNLRVRGRVCKTNLPSNTAFRGFGFPQGAFVTETCMSAVAAKCRLPPEKVRELNMYRTIDRTIHNQEFDPTNLLQCWEACVENSSYYNRKKAVDEFNQQRFWKKRGIAIIPMKFSVGFGKTFYYQAAALVQIYTDGSVLVAHGGVELGQGINTKMIQVASRELKIPMSYIHLDEMSTVTVPNTVTTGASTGADVNGRAVQNACQILMKRLEPIIKQNPSGTWEEWVKEAFVQSISLSATGYFRGYQADMDWEKGEGDIFPYFVFGAACSEVEIDCLTGAHKNIRTDIVMDGSFSINPAVDIGQIEGAFVQGLGLYTLEELKYSPEGVLYTRGPHQYKIASVTDIPEEFHVSLLTPTPNPKAIYSSKGLGEAGTFLGCSVFFAIAAAVAAAREERGLSPIWAINSPATAEVIRMACEDQFTNLVPQTDSKCCKPWSIPVA
Take B1: in data set [7], the Km amounted to 47 ± 2 µM, the kcat was found to be 8.83 s⁻¹ and the catalytic efficiency (kcat/Km) is 189000 M⁻¹ s⁻¹.

B2: mAOX3 (mouse aldehyde oxidase 3) (Mus musculus; P1015A) (protein)
chain: MSPSKESDELIFFVNGKKVTERNADPEVNLLFYLRKVIRLTGTKYGCGGGDCGACTVMISRYDPISKRISHFSATACLVPICSLHGAAVTTVEGIGSTKTRIHPVQERIAKGHGTQCGFCTPGMVMSIYTLLRNHPEPSTEQIMETLGGNLCRCTGYRPIVESAKSFCPSSTCCQMNGEGKCCLDEEKNEPERKNSVCTKLYEKKEFQPLDPTQELIFPPELMRMAEESQNTVLTFRGERTTWIAPGTLNDLLELKMKHPSAPLVIGNTYLGLHMKFTDVSYPIIISPARILELFVVTNTKQGLTLGAGLSLTQVKNVLSDVVSRLPKEKTQIYCALLKQLKTLAGQQIRNVASLGGHIISRLPTSDLNPILGIGNCILNVASTEGIQQIPLNDHFLAGVPDAILKPEQVLISVFVPRSSKWEFVSAFRQAPRQQNAFATVNAGMKVVFKEDTNTITDLGILYGGIGATVISADKSCRQLIGRCWDEEMLDDAGKMICEEVSLLMAAPGGMEEYRKTLAISFLFMFYLDVLKQLKTRDPHKYPDISQKLLHILEDFPLTMPYGMQSFQDVDFQQPLQDPIGRPIMHQSGIKHATGEAVFCDDMSVLPGELFLAVVTSSKSHAKIISLDASEALASLGVVDVVTARDVPGDNGREEESLYAQDEVICVGQIVCAVAADSYAHAQQAAKKVKIVYQDIEPMIVTVQDALQYESFIGPERKLEQGNVEEAFQCADQILEGEVHLGGQEHFYMETQSVRVVPKGEDKEMDIYVSSQDAAFTQEMVARTLGIPKNRINCHVKRVGGAFGGKASKPGLLASVAAVAAQKTGRPIRFILERRDDMLITGGRHPLLGKYKIGFMNNGKIKAADIQLYINGGCTPDDSELVIEYALLKLENAYKIPNLRVRGRVCKTNLPSNTAFRGFGFPQGAFVTETCMSAVAAKCRLPPEKVRELNMYRTIDRTIHNQEFDPTNLLQCWEACVENSSYYNRKKAVDEFNQQRFWKKRGIAIIPMKFSVGFAKTFYYQAAALVQIYTDGSVLVAHGGVELGQGINTKMIQVASRELKIPMSYIHLDEMSTVTVPNTVTTGASTGADVNGRAVQNACQILMKRLEPIIKQNPSGTWEEWVKEAFVQSISLSATGYFRGYQADMDWEKGEGDIFPYFVFGAACSEVEIDCLTGAHKNIRTDIVMDGSFSINPAVDIGQIEGAFVQGLGLYTLEELKYSPEGVLYTRGPHQYKIASVTDIPEEFHVSLLTPTPNPKAIYSSKGLGEAGTFLGCSVFFAIAAAVAAAREERGLSPIWAINSPATAEVIRMACEDQFTNLVPQTDSKCCKPWSIPVA
notes: N-terminal His6-tag, full length, plasmid pMMA1, expressed in E. coli; homodimer with Moco, two [2Fe-2S], FAD
Consider B2, for which, in data set [8], the Km turned out to be 87 ± 3.4 µM, the kcat was found to be 1.08 ± 0.183 s⁻¹ and the specificity constant (kcat/Km) is 12400 ± 2200 M⁻¹ s⁻¹.

B3: mAOX3 (mouse aldehyde oxidase 3) (Mus musculus; F1014V) (protein)
chain: MSPSKESDELIFFVNGKKVTERNADPEVNLLFYLRKVIRLTGTKYGCGGGDCGACTVMISRYDPISKRISHFSATACLVPICSLHGAAVTTVEGIGSTKTRIHPVQERIAKGHGTQCGFCTPGMVMSIYTLLRNHPEPSTEQIMETLGGNLCRCTGYRPIVESAKSFCPSSTCCQMNGEGKCCLDEEKNEPERKNSVCTKLYEKKEFQPLDPTQELIFPPELMRMAEESQNTVLTFRGERTTWIAPGTLNDLLELKMKHPSAPLVIGNTYLGLHMKFTDVSYPIIISPARILELFVVTNTKQGLTLGAGLSLTQVKNVLSDVVSRLPKEKTQIYCALLKQLKTLAGQQIRNVASLGGHIISRLPTSDLNPILGIGNCILNVASTEGIQQIPLNDHFLAGVPDAILKPEQVLISVFVPRSSKWEFVSAFRQAPRQQNAFATVNAGMKVVFKEDTNTITDLGILYGGIGATVISADKSCRQLIGRCWDEEMLDDAGKMICEEVSLLMAAPGGMEEYRKTLAISFLFMFYLDVLKQLKTRDPHKYPDISQKLLHILEDFPLTMPYGMQSFQDVDFQQPLQDPIGRPIMHQSGIKHATGEAVFCDDMSVLPGELFLAVVTSSKSHAKIISLDASEALASLGVVDVVTARDVPGDNGREEESLYAQDEVICVGQIVCAVAADSYAHAQQAAKKVKIVYQDIEPMIVTVQDALQYESFIGPERKLEQGNVEEAFQCADQILEGEVHLGGQEHFYMETQSVRVVPKGEDKEMDIYVSSQDAAFTQEMVARTLGIPKNRINCHVKRVGGAFGGKASKPGLLASVAAVAAQKTGRPIRFILERRDDMLITGGRHPLLGKYKIGFMNNGKIKAADIQLYINGGCTPDDSELVIEYALLKLENAYKIPNLRVRGRVCKTNLPSNTAFRGFGFPQGAFVTETCMSAVAAKCRLPPEKVRELNMYRTIDRTIHNQEFDPTNLLQCWEACVENSSYYNRKKAVDEFNQQRFWKKRGIAIIPMKFSVGVPKTFYYQAAALVQIYTDGSVLVAHGGVELGQGINTKMIQVASRELKIPMSYIHLDEMSTVTVPNTVTTGASTGADVNGRAVQNACQILMKRLEPIIKQNPSGTWEEWVKEAFVQSISLSATGYFRGYQADMDWEKGEGDIFPYFVFGAACSEVEIDCLTGAHKNIRTDIVMDGSFSINPAVDIGQIEGAFVQGLGLYTLEELKYSPEGVLYTRGPHQYKIASVTDIPEEFHVSLLTPTPNPKAIYSSKGLGEAGTFLGCSVFFAIAAAVAAAREERGLSPIWAINSPATAEVIRMACEDQFTNLVPQTDSKCCKPWSIPVA
notes: as for B2
Regarding B3, in data set [9], the Km is 12.5 ± 0.6 µM, the kcat is 4.63 ± 0.233 s⁻¹ and the kcat/Km worked out at 372000 ± 25000 M⁻¹ s⁻¹.

What is called kcat is the number of substrate molecules converted per active site and unit of time at saturation. Broadly, the kcat/Km is the second-order rate constant that governs catalysis at low substrate concentration.
